Results as given in patent US12006314B2, “Anti-cancer nuclear hormone receptor-targeting compounds” (Nuvation Bio Inc., priority 2021, dated 2024).
Numbering of substitutions follows the chain as printed.

Tests used:
[1] = test system: 22Rv1 cells; assay: Cell viability assay 22Rv1; type: cell-based; settings: Homo sapiens, 22Rv1, 144 h; 6 days, CellTiterGlo
Description: (§1) Cell viability assay: LNCap, 22Rv1, MCF7, MDAMB361, T47D, and IEC6 cells were seeded at a density of 500-2000 cells/well in 96 well plates, and a ‘T0’ (timepoint 0) was included along with the assay plate. The plates were then incubated at 37° C., 5% CO2 in a cell culture incubator overnight. On the next day, the ‘T0’ plate was assayed using CellTiterGlo (Promega, Inc) according to the manufacturer's instructions. The appropriate compounds were diluted in DMSO and added to the assay plate (final DMSO concentration of 0.1-0.2%) on the next day. The assay plates were incubated for 6 days at 37° C., 5% CO2. After the incubation period, the plates were assayed using CellTiterGlo (Promega, Inc) according to the manufacturer's instructions and luminescence was read on the EnVision plate reader. Inhibition of the tested compounds was determined by the following formula: Inhibition rate (%)=(1−(RLU compound−RLU day0)/(RLU control−RLU day0))*100%. GraphPadPrism was used to analyze the data and determine GI50/IC50 values.

[2] = test system: IEC6 cells; assay: Cell viability assay IEC6; type: cell-based; settings: Rattus norvegicus, IEC-6, 144 h; 6 days, CellTiterGlo
Description: as §1

[3] = target: T1, full-length androgen receptor (HEK293 cells stably expressing) (Homo sapiens, UniProt P10275); assay: AR antagonism assay; type: cell-based; settings: testosterone 1 nM, 20 h, Steady-glo
T1 construct: HEK293 cells stably expressing the full-length androgen receptor were seeded; expressed in transfected cells
T1 sequence (P10275 1-920): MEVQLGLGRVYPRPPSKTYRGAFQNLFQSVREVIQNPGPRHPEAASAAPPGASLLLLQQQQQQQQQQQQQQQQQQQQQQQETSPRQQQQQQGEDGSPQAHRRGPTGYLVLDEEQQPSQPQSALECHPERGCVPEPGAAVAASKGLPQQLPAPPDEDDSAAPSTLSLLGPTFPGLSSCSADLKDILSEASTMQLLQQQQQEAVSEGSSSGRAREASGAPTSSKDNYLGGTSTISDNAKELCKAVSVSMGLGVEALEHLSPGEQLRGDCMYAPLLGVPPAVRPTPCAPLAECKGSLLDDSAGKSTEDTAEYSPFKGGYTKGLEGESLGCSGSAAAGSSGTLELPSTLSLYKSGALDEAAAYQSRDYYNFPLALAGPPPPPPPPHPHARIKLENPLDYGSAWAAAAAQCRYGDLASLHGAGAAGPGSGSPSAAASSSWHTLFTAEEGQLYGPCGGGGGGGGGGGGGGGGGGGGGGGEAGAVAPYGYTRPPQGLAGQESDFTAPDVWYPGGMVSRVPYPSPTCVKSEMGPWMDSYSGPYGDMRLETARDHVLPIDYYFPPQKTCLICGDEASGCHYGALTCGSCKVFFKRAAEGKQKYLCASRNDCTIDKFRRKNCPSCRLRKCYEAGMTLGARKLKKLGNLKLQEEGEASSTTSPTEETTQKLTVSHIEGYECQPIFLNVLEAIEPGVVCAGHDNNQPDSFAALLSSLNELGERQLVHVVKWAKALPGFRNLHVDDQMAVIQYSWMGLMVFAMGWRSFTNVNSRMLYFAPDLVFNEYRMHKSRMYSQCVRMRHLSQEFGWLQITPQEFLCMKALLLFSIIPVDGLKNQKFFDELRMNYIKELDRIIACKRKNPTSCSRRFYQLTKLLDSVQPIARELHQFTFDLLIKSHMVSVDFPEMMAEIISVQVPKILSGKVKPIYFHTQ
Description: AR antagonism assay: To evaluate AR antagonist activity, test compound was added to the assay plate (top dose 10 μM, 3 fold serial dilution, 10 point dose response). HEK293 cells stably expressing the full-length androgen receptor were seeded at a density of 20000 cells/well in the assay plate. The assay plate was then incubated at room temperature for 10 minutes and at 37° C., 5% CO2 for 20 minutes. Testosterone is added to the assay plate at 1 nM final concentration and the assay plate incubated at 37° C., 5% CO2 for 20 h. After the incubation period, Steady-glo was added to the assay plate and mixed at room temperature for 20 minutes on an orbital shaker, before reading out on the EnVision plate reader.

[4] = target: T2, AR (cytosol from LnCaP cells) (Homo sapiens, UniProt P10275, T878A); assay: AR binding assay; settings: 3H-R1881 1 nM, 4° C. 24 hrs
T2 construct: endogenous in cells; host or cells: LNCaP cytosol
T2 sequence (P10275 1-920 T878A): T1 sequence (P10275 1-920) with T878A
Description: AR binding assay: To assess AR binding, test compound (top dose 10 μM, 4 fold serial dilution, 8 point dose response) and control (progesterone) were transferred to the assay plate. Cytosol from LnCaP cells was added to the plate, followed by addition of radiolabeled ^3H-R1881 at a final concentration of 1 nM. The plate was sealed, and the reaction was incubated at 300 rpm at 4° C. for 24 hrs. Radioligand absorption buffer (10 mM Tris-HCl, pH 7.4; 1.5 mM EDTA; 1 mM DTT; 0.25% charcoal; 0.0025% dextran) was then added to the plate, mixed, and incubated at 4° C. for 15 minutes. The plate was then centrifuged at 3000 rpm for 30 minutes at 4° C. The supernatant was transferred to the scint-tube and Tri-carb was used for scintillation counting.

[5] = test system: LNCap cells; assay: Cell viability assay LNCap; type: cell-based; settings: Homo sapiens, 144 h, 6 days, CellTiterGlo
Description: as §1

[6] = test system: MCF7 cells; assay: Cell viability assay MCF7; type: cell-based; settings: Homo sapiens, MCF7, 144 h; 6 days, CellTiterGlo
Description: as §1

[7] = test system: MDAMB361 cells; assay: Cell viability assay MDAMB361; type: cell-based; settings: Homo sapiens, MDA-MB-361, 144 h; 6 days, CellTiterGlo
Description: as §1

[8] = target: T3, ER (SK-BR-3 cells transfected with ERE plasmid and ER) (Homo sapiens, UniProt P03372); assay: ER antagonism assay; type: cell-based; settings: 100 nM β-Estradiol, 24 h, Dual-glo luciferase
T3 construct: expressed in transfected cells; host or cells: SK-BR-3 (transient, lipofectamine 3000)
T3 sequence (P03372 1-595): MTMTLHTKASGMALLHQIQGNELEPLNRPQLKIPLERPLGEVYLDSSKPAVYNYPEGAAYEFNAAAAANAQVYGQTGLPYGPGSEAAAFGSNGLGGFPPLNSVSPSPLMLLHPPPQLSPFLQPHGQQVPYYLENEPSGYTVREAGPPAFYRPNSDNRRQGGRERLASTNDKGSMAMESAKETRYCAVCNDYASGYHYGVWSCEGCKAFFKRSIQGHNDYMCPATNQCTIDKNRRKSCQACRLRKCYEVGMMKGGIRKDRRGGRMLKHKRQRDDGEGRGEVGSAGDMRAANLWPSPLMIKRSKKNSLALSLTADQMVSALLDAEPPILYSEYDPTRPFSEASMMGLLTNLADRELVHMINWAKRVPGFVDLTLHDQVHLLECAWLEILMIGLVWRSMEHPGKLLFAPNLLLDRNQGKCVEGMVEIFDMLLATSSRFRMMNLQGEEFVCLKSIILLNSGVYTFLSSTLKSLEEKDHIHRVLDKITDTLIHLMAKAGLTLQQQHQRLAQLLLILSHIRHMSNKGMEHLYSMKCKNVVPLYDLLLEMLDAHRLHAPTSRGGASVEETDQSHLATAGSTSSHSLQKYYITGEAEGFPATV
Description: ER antagonism assay: To evaluate ER antagonist activity, SK-BR-3 cells were seeded at a density of 30000 cells/well in the assay plate. The assay plate was then incubated at 37° C., 5% CO2 for 24 h. A mixture of ERE plasmid and ER in opti-MEM media was incubated with lipofectamine 3000 in Opti-MEM media and incubated at room temperature for 15 minutes. 10 μL of this transfection mix was added to each well of the assay plate and the assay plate was incubated at 37° C., 5% CO2 for 24 h. 100 nM β-Estradiol in 10 μL medium or 10 μL medium (control wells) was added to corresponding wells of assay plate and incubated at 37° C. 5% CO2 for 24 h. After the incubation period, 50 μL of Dual-glo luciferase reagent was added to the assay plate and mixed at room temperature for 20 mins on an orbital shaker, before reading out on the EnVision plate reader. 50 μL of Stop & Glo reagent was added to assay plate, mixed at room temperature for 20 minutes, and read on the Envision plate reader.

SMILES	GI50 [1]	IC50 [2]	IC50 [3]	IC50 [4]	GI50 [5]	GI50 [6]	GI50 [7]	IC50 [8]
CCc1cc2ncc(CN3CCN(CC4CCN(c5ccc(C(=O)N[C@H]6CC[C@H](Oc7ccc(C#N)c(Cl)c7C)CC6)nn5)CC4)CC3)cc2[nH]c1=O [Compound 66, N-((1r,4r)-4-(3-Chloro-4-cyano-2-methylphenoxy)cyclohexyl)-6-(4-((4-((7-ethyl-6-oxo-5,6-dihydro-1,5-naphthyridin-3-yl)methyl)piperazin-1-yl)methyl)piperidin-1-yl)pyridazine-3-carboxamide]	≤ 0.5 µM	0.5 to 5 µM	> 10 µM	< 0.1 µM	≤ 0.5 µM	–	–	–
CCc1cc2ncc(CN3CCN(CC4CCN(c5ccc(C(=O)N[C@H]6CC[C@H](N(C)c7ccc(C#N)c(Cl)c7)CC6)nn5)CC4)CC3)cc2[nH]c1=O [Compound 67, N-((1R,4R)-4-((3-Chloro-4-cyanophenyl)(methyl)amino)cyclohexyl)-6-(4-((4-((7-ethyl-6-oxo-5,6-dihydro-1,5-naphthyridin-3-yl)methyl)piperazin-1-yl)methyl)piperidin-1-yl)pyridazine-3-carboxamide]	≤ 0.5 µM	> 30 µM	> 10 µM	< 0.1 µM	≤ 0.5 µM	–	–	–
CCc1cc2ncc(CN3CCN(Cc4ccc(-c5nnc([C@H](Nc6ccc(C#N)c(Cl)c6)[C@H](C)O)o5)cc4)CC3)cc2[nH]c1=O [Compound 68, 2-Chloro-4-(((1R,2S)-1-(5-(4-((4-((7-ethyl-6-oxo-5,6-dihydro-1,5-naphthyridin-3-yl)methyl)piperazin-1-yl)methyl)phenyl)-1,3,4-oxadiazol-2-yl)-2-hydroxypropyl)amino)benzonitrile]	5 to 30 µM	> 30 µM	> 10 µM	> 10 µM	0.5 to 5 µM	–	–	–
CCc1cc2ncc(CN3CCN(Cc4ccc(-c5nnc([C@H](Nc6ccc(C#N)c(Cl)c6C)[C@H](C)O)o5)cc4)CC3)cc2[nH]c1=O [Compound 69, 2-Chloro-4-(((1R,2S)-1-(5-(4-((4-((7-ethyl-6-oxo-5,6-dihydro-1,5-naphthyridin-3-yl)methyl)piperazin-1-yl)methyl)phenyl)-1,3,4-oxadiazol-2-yl)-2-hydroxypropyl)amino)-3-methylbenzonitrile]	5 to 30 µM	> 30 µM	> 10 µM	> 10 µM	0.5 to 5 µM	–	–	–
CCc1cc2ncc(CN3CCN(C(=O)[C@H]4CC[C@H](COc5cc(F)c([C@@H]6c7[nH]c8ccccc8c7C[C@@H](C)N6CC(C)(C)F)c(F)c5)CC4)CC3)cc2[nH]c1=O [Compound 70, 7-((4-((1r,4r)-4-((3,5-Difluoro-4-((1R,3R)-2-(2-fluoro-2-methylpropyl)-3-methyl-2,3,4,9-tetrahydro-1H-pyrido[3,4-b]indol-1-yl)phenoxy)methyl)cyclohexane-1-carbonyl)piperazin-1-yl)methyl)-3-ethyl-1,5-naphthyridin-2(1H)-one]	–	> 30 µM	–	–	–	5 to 30 µM	≤ 0.5 µM	≤ 0.1 µM
